Experiments:
[1] = tested on: NO; test: Nitric oxide (NO) secretion in saliva after Candida albicans challenge (Griess reaction); type: in vivo, DBA/2 mice; details: oral 5×10^9 CFU, FIG. 2
Procedure: DBA/2 mice (n=3 to 5 per group) were fed Lactobacillus acidophilus and then challenged with Candida albicans as described in Example 3 below. At various times following oral infusion, saliva was collected after injection with pilocarpine to stimulate saliva flow. The concentration of NO in saliva was determined by the Griess reaction according to the method by Gree et al (1982) Anal. Biochem 126:131-138. DBA/2 mice […] male mice (n=3-5 per group) were fed intragastrically every 2 days for 2 weeks with 5×10^9 L. acidophilus in 0.2 mL PBS. One day after the last feed mice were challenged with 10^8 Candida albicans blastospores by swabbing the oral cavity using a fine-tip sterile swab. At various days after infection the number of C. albicans in the oral mucosa was determined. The oral cavity (cheek, tongue and soft palate) was completely swabbed using a fine-tipped cotton swab. The cotton swab was placed in 1 mL PBS and the yeast cells were resuspended by mixing in a vortex mixer before culture of serial 10-fold dilutions on Sabourand dextrose agar supplemented with chloramphenicol at 37° C. The results were expressed as CFU/mL (FIG. 5)

[2] = tested on: Candida albicans; test: Resistance to oral C. albicans infection following feeding with probiotic bacteria; type: in vivo, DBA/2 mice; details: 5×10^9 intragastrically every 2 days for 2 weeks
Procedure: DBA/2 mice H2d male mice (n=3-5 per group) were fed intragastrically every 2 days for 2 weeks with 5×10^9 L. acidophilus in 0.2 mL PBS. One day after the last feed mice were challenged with 10^8 Candida albicans blastospores by swabbing the oral cavity using a fine-tip sterile swab. At various days after infection the number of C. albicans in the oral mucosa was determined. The oral cavity (cheek, tongue and soft palate) was completely swabbed using a fine-tipped cotton swab. The cotton swab was placed in 1 mL PBS and the yeast cells were resuspended by mixing in a vortex mixer before culture of serial 10-fold dilutions on Sabourand dextrose agar supplemented with chloramphenicol at 37° C. The results were expressed as CFU/mL (FIG. 5)

Lactobacillus acidophilus [L. acidophilus]
secretion of NO into saliva, early after challenge ([1]; early after C. albicans challenge): increased
secretion of NO into saliva, later stage ([1]; later stage after C. albicans challenge): significantly reduced
resistance to C. albicans infection (oral mucosa CFU) compared to mice fed PBS ([2]; all time points, FIG. 5): more resistant to infection at all time points
clearance of yeasts from oral cavity by day 6 ([2]; day 6): almost completely cleared
